According to patent US11541028B2, “Peptide pharmaceuticals for treatment of NASH and other disorders” (Mederis Diabetes LLC, priority 2018, dated 2023):
Read-outs that look alike come from different tables or passages of the source. Numbered stars: 1 amine (or outer) side, 2 acyl side, 3 side chain; on linkers, the order of the positions; unused ones are H or OH. Bridge positions count the residues as written; N and C are the ends. Square brackets hold non-standard residues; d marks the D form. Side chains are listed from the residue outwards. Peptide text beside a SMILES is read from it. * marks the point of attachment. X1 = CCCCCCCCCCCCCCCCO[C@@H]1O[C@H](CO[C@H]2O[C@H](C(=O)*)[C@H](O)[C@H](O)[C@H]2O)[C@@H](O)[C@H](O)[C@H]1O; βGlcA(1-O-hexadecyl) = CCCCCCCCCCCCCCCCO[C@@H]1O[C@H](C(=O)*)[C@@H](O)[C@H](O)[C@H]1O; βDGlcA(1-OC18H37) = CCCCCCCCCCCCCCCCCCO[C@@H]1O[C@H](C(=O)*)[C@@H](O)[C@H](O)[C@H]1O; Bip = N[C@@H](Cc1ccc(-c2ccccc2)cc1)C(=O)O; γGlu = O=C(O)[C@H](CCC(=O)[*:2])N[*:1]; αMeF = C[C@](N)(Cc1ccccc1)C(=O)O; Aib = CC(C)(N)C(=O)O

Legend:
[1] = target: T1, human glucagon receptor (Homo sapiens, UniProt P47871); experiment: DiscoveRx LeadHunter cellular assay, cAMP stimulation, glucagon receptor in CHO cells; assay type: cell-based
T1 construct: host or cells: CHO cells

[2] = target: T2, human GLP-1 receptor (Homo sapiens, UniProt P43220); experiment: DiscoveRx LeadHunter cellular assay, cAMP stimulation, GLP-1 receptor in CHO cells; assay type: cell-based; details: human GLP-1 receptor in CHO cells (DiscoveRx); read-out: EC50 cAMP GLP-1 R
T2 construct: host or cells: CHO cells
T2 sequence (P43220 24-463): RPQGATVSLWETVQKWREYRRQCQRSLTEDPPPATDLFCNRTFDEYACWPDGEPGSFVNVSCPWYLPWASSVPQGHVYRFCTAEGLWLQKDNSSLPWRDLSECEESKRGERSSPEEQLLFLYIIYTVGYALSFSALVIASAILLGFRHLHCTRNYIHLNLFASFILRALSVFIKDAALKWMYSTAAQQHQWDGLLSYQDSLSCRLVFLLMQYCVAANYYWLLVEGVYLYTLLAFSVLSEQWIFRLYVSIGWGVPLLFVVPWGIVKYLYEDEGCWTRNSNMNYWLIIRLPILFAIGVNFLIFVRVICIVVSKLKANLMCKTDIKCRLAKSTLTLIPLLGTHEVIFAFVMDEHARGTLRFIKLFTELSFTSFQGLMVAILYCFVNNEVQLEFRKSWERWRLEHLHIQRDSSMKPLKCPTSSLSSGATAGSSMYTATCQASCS

T1 sequence (P47871 26-477): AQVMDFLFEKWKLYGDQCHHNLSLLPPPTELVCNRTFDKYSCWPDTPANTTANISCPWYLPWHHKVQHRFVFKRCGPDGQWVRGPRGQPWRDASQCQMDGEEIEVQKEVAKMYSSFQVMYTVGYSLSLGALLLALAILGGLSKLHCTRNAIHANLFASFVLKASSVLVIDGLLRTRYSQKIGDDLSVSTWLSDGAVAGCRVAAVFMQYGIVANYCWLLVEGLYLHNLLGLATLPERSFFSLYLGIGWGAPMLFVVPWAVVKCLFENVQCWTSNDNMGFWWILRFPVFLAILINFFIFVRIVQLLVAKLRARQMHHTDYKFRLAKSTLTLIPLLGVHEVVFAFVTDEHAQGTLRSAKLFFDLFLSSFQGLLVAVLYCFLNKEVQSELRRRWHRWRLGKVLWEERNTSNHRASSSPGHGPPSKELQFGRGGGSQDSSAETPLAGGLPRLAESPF

| Structure (SMILES) | EC50 [1] [nM] | EC50 [2] [nM] | EC50 ([1]; read-out: EC50 cAMP Glucagon R, human glucagon receptor in CHO cells (DiscoveRx)) [nM] |
| --- | --- | --- | --- |
| CCCCCCCCCCCCCCCCCCO[C@@H]1O[C@H](C(=O)NCCCC[C@H](NC(=O)[C@H](Cc2ccc(-c3ccccc3)cc2)NC(=O)[C@H](CC(=O)O)NC(=O)[C@H](CO)NC(=O)[C@@H](NC(=O)[C@](C)(Cc2ccccc2)NC(=O)[C@@H](NC(=O)CNC(=O)[C@H](CCC(N)=O)NC(=O)C(C)(C)NC(=O)[C@@H](N)Cc2c[nH]cn2)[C@@H](C)O)[C@@H](C)O)C(N)=O)[C@@H](O)[C@H](O)[C@H]1O [EU-A757] (H-H[Aib]QGT[αMeF]TSD[Bip]K(βDGlcA(1-OC18H37))-NH2; N-terminus assumed) | – | – | > 1000 |
| CCCCCCCCCCCCCCCCCCO[C@@H]1O[C@H](C(=O)NCCCC[C@H](NC(=O)[C@@H](NC(=O)[C@H](Cc2ccccc2)NC(=O)[C@H](CCC(=O)O)NC(=O)[C@@H]2CCCCNC(=O)CC[C@H](NC(=O)[C@H](CC(=O)O)NC(=O)[C@H](CC(C)C)NC(=O)[C@H](Cc3ccc(O)cc3)NC(=O)[C@H](CCCCN)NC(=O)[C@H](CO)NC(=O)[C@H](Cc3ccc(O)cc3)NC(=O)[C@H](CC(=O)O)NC(=O)[C@H](CO)NC(=O)[C@@H](NC(=O)[C@H](Cc3ccccc3)NC(=O)[C@@H](NC(=O)CNC(=O)[C@H](CCC(N)=O)NC(=O)C(C)(C)NC(=O)[C@@H](N)Cc3c[nH]cn3)[C@@H](C)O)[C@@H](C)O)C(=O)N[C@@H](CCC(N)=O)C(=O)N[C@@H](C)C(=O)N[C@@H](C)C(=O)N2)[C@@H](C)CC)C(=O)N[C@@H](Cc2c[nH]c3ccccc23)C(=O)N[C@@H](CC(C)C)C(=O)N[C@@H](CC(C)C)C(=O)N[C@@H](CCC(N)=O)C(=O)N[C@H](C(N)=O)[C@@H](C)O)[C@@H](O)[C@H](O)[C@H]1O [EU-A996] | – | 0.05 | – |
| CCCCCCCCCCCCO[C@@H]1O[C@H](C(=O)O)[C@@H](O[C@H]2O[C@H](C(=O)NCCCC[C@H](NC(=O)[C@@H](NC(=O)[C@H](Cc3ccccc3)NC(=O)[C@H](CCC(=O)O)NC(=O)[C@@H]3CCCCNC(=O)CC[C@H](NC(=O)[C@H](CC(=O)O)NC(=O)[C@H](CC(C)C)NC(=O)[C@H](Cc4ccc(O)cc4)NC(=O)[C@H](CCCCN)NC(=O)[C@H](CO)NC(=O)[C@H](Cc4ccc(O)cc4)NC(=O)[C@H](CC(=O)O)NC(=O)[C@H](CO)NC(=O)[C@@H](NC(=O)[C@H](Cc4ccccc4)NC(=O)[C@@H](NC(=O)CNC(=O)[C@H](CCC(N)=O)NC(=O)C(C)(C)NC(=O)[C@@H](N)Cc4c[nH]cn4)[C@@H](C)O)[C@@H](C)O)C(=O)N[C@@H](CCC(N)=O)C(=O)N[C@@H](C)C(=O)N[C@@H](C)C(=O)N3)[C@@H](C)CC)C(=O)N[C@@H](Cc3c[nH]c4ccccc34)C(=O)N[C@@H](CC(C)C)C(=O)N[C@@H](CC(C)C)C(=O)N[C@@H](CCC(N)=O)C(=O)N[C@H](C(N)=O)[C@@H](C)O)[C@@H](O)[C@H](O)[C@H]2O)[C@H](O)[C@H]1O [EU-A999] | – | 0.05 | – |

Now from value to molecule:

| EC50 [1] [nM] | EC50 [2] [nM] | EC50 ([1]; read-out: EC50 cAMP Glucagon R, human glucagon receptor in CHO cells (DiscoveRx)) [nM] | Structure (SMILES) |
| --- | --- | --- | --- |
| 2.08 | 0.774 | – | CCCCCCCCCCCCCCO[C@@H]1O[C@H](CO[C@H]2O[C@H](C(=O)N[C@@H](CCC(=O)N[C@@H](CCC(=O)NCCCC[C@H](NC(=O)[C@@H](NC(=O)[C@H](Cc3ccccc3)NC(=O)[C@H](CCC(=O)O)NC(=O)[C@@H]3CCCCNC(=O)CC[C@H](NC(=O)[C@H](CC(=O)O)NC(=O)[C@H](CC(C)C)NC(=O)[C@H](Cc4ccc(O)cc4)NC(=O)[C@H](CCCCN)NC(=O)[C@H](CO)NC(=O)[C@H](Cc4ccc(O)cc4)NC(=O)[C@H](CC(=O)O)NC(=O)[C@H](CO)NC(=O)[C@@H](NC(=O)[C@H](Cc4ccccc4)NC(=O)[C@@H](NC(=O)CNC(=O)[C@H](CCC(N)=O)NC(=O)C(C)(C)NC(=O)[C@@H](N)Cc4c[nH]cn4)[C@@H](C)O)[C@@H](C)O)C(=O)N[C@@H](CCC(N)=O)C(=O)N[C@@H](C)C(=O)N[C@@H](C)C(=O)N3)[C@@H](C)CC)C(=O)N[C@@H](Cc3c[nH]c4ccccc34)C(=O)N[C@@H](CC(C)C)C(=O)N[C@@H](CC(C)C)C(=O)N[C@@H](CCC(N)=O)C(=O)N[C@H](C(=O)O)[C@@H](C)O)C(=O)O)C(=O)O)[C@H](O)[C@H](O)[C@H]2O)[C@@H](O)[C@H](O)[C@H]1O [EU-A1622] |
| 1.17 | 0.008 | – | CCCCCCCCCCCCCCCCO[C@@H]1O[C@H](CO[C@H]2O[C@H](C(=O)NCCCC[C@H](NC(=O)[C@H](C)NC(=O)[C@H](C)NC(=O)[C@H](CCC(N)=O)NC(=O)[C@H](CO)NC(=O)[C@H](CC(=O)O)NC(=O)[C@@H]3CCCCNC(=O)CC[C@H](NC(=O)[C@H](CC(=O)O)NC(=O)[C@H](CO)NC(=O)[C@@H](NC(=O)[C@H](Cc4ccccc4)NC(=O)[C@@H](NC(=O)CNC(=O)[C@H](CCC(N)=O)NC(=O)C(C)(C)NC(=O)[C@@H](N)Cc4c[nH]cn4)[C@@H](C)O)[C@@H](C)O)C(=O)N[C@@H](CO)C(=O)N[C@@H](CCCCN)C(=O)N[C@@H](Cc4ccc(O)cc4)C(=O)N3)C(=O)N[C@@H](CCC(=O)O)C(=O)N[C@@H](Cc3ccccc3)C(=O)N[C@H](C(=O)N[C@@H](CCC(N)=O)C(=O)N[C@@H](Cc3c[nH]c4ccccc34)C(=O)N[C@@H](CC(C)C)C(=O)N[C@@H](CC(C)C)C(=O)N[C@@H](CCC(N)=O)C(=O)N[C@H](C(N)=O)[C@@H](C)O)[C@@H](C)CC)[C@H](O)[C@H](O)[C@H]2O)[C@@H](O)[C@H](O)[C@H]1O [EU-A1730] (H-H[Aib]QGTFTSDESKYKDSQAAK(X1)EFIQWLLQT-NH2; lactam 10-14; N-terminus assumed) |
| 10 | 0.232 | – | CCCCCCCCCCCCCCCCO[C@@H]1O[C@H](C(=O)N[C@@H](CCC(=O)NCCCC[C@H](NC(=O)[C@H](C)NC(=O)[C@H](C)NC(=O)[C@H](CCC(N)=O)NC(=O)[C@@H]2CCCCNC(=O)CC[C@H](NC(=O)[C@H](CO)NC(=O)[C@H](Cc3ccc(O)cc3)NC(=O)[C@H](CC(=O)O)NC(=O)[C@H](CO)NC(=O)[C@@H](NC(=O)[C@H](Cc3ccccc3)NC(=O)[C@@H](NC(=O)CNC(=O)[C@H](CCC(N)=O)NC(=O)C(C)(C)NC(=O)[C@@H](N)Cc3c[nH]cn3)[C@@H](C)O)[C@@H](C)O)C(=O)N[C@@H](Cc3ccc(O)cc3)C(=O)N[C@@H](CC(C)C)C(=O)N[C@@H](CC(=O)O)C(=O)N2)C(=O)N[C@@H](CCC(=O)O)C(=O)N[C@@H](Cc2ccccc2)C(=O)N[C@H](C(=O)N[C@@H](CCC(N)=O)C(=O)N[C@@H](Cc2c[nH]c3ccccc23)C(=O)N[C@@H](CC(C)C)C(=O)N[C@@H](CC(C)C)C(=O)N[C@@H](CCC(N)=O)C(=O)N[C@H](C(N)=O)[C@@H](C)O)[C@@H](C)CC)C(=O)O)[C@@H](O)[C@H](O)[C@H]1O [EU-A1788] (H-H[Aib]QGTFTSDYSEYLDKQAAK([γGlu-βGlcA(1-O-hexadecyl)])EFIQWLLQT-NH2; lactam 12-16; N-terminus assumed) |
